Measurements from patent US20240360139A1, “BLOOD BRAIN BARRIER PENETRATING SELECTIVE INHIBITORS OF ROCK2 PROTEIN KINASES AND USES THEREOF” (GENOSCO Inc., priority 2023, published 2024).

What was measured:
[1] = target: T1, Recombinant ROCK1 (amino acids 1-477) (Homo sapiens, UniProt Q13464); assay: ROCK inhibition assay, LANCE Ultra TR-FRET (ROCK1); format: biochemical; conditions: 1 mM of ATP
T1 construct: Recombinant ROCK1 (amino acids 1-477)
Procedure: (§1) Kinase IC50 was determined through an in vitro assay based on LANCE Ultra TR-FRET (Time-Resolved Fluorescence Resonance Energy Transfer) homogeneous technologies method 5 (Perkin Elmer). Recombinant ROCK1 (amino acids 1-477) and ROCK2 (amino acids 5-554) proteins were purchased from Carna Biosciences and SignalChem. Compound activities were measured by Envision and IC50s were calculated. The assays were performed in white LUMITRAC™ 200 96 well half-area microplates from Greiner Bio-One. The kinase reaction buffer consisted of 50 mM HEPES pH 7.5, 1 mM EGTA, 10 mM MgCl2, 2 mM DTT and 0.01% 10 Tween-20. Kinases were incubated with 50 nM (ULight-CREBtide) substrate in the presence of 1 mM (ROCK1) or 1 mM (ROCK2) of ATP. The kinase reaction was carried out for 1 hour before addition of a stopping buffer to a final of 10 mM EDTA and 0.6 nM of LANCE Ultra Europium anti-phospho-CREB (Ser133) antibody (PerkinElmer TRF0200) in LANCE detection buffer. All assay incubations were performed at room temperature, and the microplates were sealed with polyester film during that time. The reaction was incubated for 1 hour, and the signal was read in Envision in TR-FRET mode (excitation at 320 nm and emission at 615/665 nm).
(§2) As used herein, a way to describe potency of inhibitory activity (nM) is a value of inhibitory activity at 50% (IC50).

[2] = target: T2, Recombinant ROCK2 (amino acids 5-554) (Homo sapiens, UniProt O75116); assay: ROCK inhibition assay, LANCE Ultra TR-FRET (ROCK2); format: biochemical; conditions: 1 mM of ATP
T2 construct: ROCK2 (amino acids 5-554)
T2 sequence (O75116 5-554): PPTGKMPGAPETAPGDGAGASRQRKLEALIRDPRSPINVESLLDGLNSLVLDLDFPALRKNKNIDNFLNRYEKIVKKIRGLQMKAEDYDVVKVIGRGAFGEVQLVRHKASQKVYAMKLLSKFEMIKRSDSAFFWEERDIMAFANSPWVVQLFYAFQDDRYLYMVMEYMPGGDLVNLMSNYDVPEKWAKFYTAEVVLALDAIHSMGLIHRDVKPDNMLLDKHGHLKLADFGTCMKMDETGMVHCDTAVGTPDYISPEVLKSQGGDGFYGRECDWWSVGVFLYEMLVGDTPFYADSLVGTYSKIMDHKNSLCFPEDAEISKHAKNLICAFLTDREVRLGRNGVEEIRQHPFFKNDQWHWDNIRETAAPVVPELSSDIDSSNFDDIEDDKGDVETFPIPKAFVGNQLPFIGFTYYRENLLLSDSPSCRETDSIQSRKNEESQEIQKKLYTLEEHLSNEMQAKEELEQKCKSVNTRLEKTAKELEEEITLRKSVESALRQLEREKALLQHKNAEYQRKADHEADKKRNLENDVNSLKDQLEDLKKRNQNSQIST
Procedure: as §1, §2

T1 sequence (Q13464 1-477): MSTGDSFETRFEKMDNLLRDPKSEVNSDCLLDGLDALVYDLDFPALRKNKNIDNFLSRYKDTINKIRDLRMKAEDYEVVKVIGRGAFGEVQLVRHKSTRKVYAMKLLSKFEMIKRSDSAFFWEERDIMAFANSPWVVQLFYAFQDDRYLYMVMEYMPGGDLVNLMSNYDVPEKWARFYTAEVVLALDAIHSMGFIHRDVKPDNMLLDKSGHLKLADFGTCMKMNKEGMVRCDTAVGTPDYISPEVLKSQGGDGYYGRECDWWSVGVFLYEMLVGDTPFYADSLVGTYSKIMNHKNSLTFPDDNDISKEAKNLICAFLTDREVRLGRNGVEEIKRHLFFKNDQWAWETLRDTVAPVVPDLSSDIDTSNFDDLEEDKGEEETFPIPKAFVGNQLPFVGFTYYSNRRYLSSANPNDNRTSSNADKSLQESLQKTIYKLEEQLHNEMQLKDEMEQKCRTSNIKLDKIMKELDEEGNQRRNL

COc1[nH]ncc1-c1ccc2c(C(=O)C3COc4ccc(Cl)cc4C3)cn(C[C@@H]3CCCN3C)c2c1 (stereo partly shown) [Compound 1-29]
IC50 [1]: 201 to 500 nM
IC50 [2]: 21 to 200 nM

O=C(c1cn(CC2CCN2)c2cc(-c3cn[nH]c3F)ccc12)C1COc2ccc(Cl)cc2C1 (stereo not shown) [Compound 1-30]
IC50 [1]: > 501 nM
IC50 [2]: < 20 nM

O=C(c1cn(CC2CCN2)c2cc(-c3cn[nH]c3Cl)ccc12)C1COc2ccc(Cl)cc2C1 (stereo not shown) [Compound 1-31]
IC50 [1]: > 501 nM
IC50 [2]: 21 to 200 nM

COc1[nH]ncc1-c1ccc2c(C(=O)C3COc4ccc(Cl)cc4C3)cn(CC3CCN3)c2c1 (stereo not shown) [Compound 1-32]
IC50 [1]: > 501 nM
IC50 [2]: < 20 nM

CN(C)CCn1cc(C(=O)C2COc3ccc(Cl)cc3C2)c2cnc(-c3cn[nH]c3Cl)nc21 (stereo not shown) [Compound 1-33]
IC50 [1]: > 501 nM
IC50 [2]: > 501 nM

CN(C)CCn1cc(C(=O)C2COc3ccc(Cl)cc3C2)c2cnc(-c3cn[nH]c3F)nc21 (stereo not shown) [Compound 1-34]
IC50 [1]: > 501 nM
IC50 [2]: 201 to 500 nM

COc1ccc2c(c1)CC(C(=O)c1cn(C[C@H]3CCN3)c3cc(-c4cn[nH]c4Cl)ccc13)CO2 (stereo partly shown) [Compound 1-35]
IC50 [1]: 21 to 200 nM
IC50 [2]: < 20 nM

COc1ccc2c(c1)CC(C(=O)c1cn(C[C@@H]3CCN3)c3cc(-c4cn[nH]c4Cl)ccc13)CO2 (stereo partly shown) [Compound 1-36]
IC50 [1]: 201 to 500 nM
IC50 [2]: < 20 nM

COc1ccc2c(c1)CC(C(=O)c1cn(C[C@@H]3CCN3)c3cc(-c4cn[nH]c4F)ccc13)CO2 (stereo partly shown) [Compound 1-37]
IC50 [1]: > 501 nM
IC50 [2]: < 20 nM

COc1ccc2c(c1)CC(C(=O)c1cn(C[C@H]3CCN3)c3cc(-c4cn[nH]c4F)ccc13)CO2 (stereo partly shown) [Compound 1-38]
IC50 [1]: 201 to 500 nM
IC50 [2]: < 20 nM

O=C(c1cn(C[C@H]2CCN2)c2cc(-c3cn[nH]c3Cl)ccc12)C1COc2ccc(Cl)cc2C1 (stereo partly shown) [Compound 1-39]
IC50 [1]: > 501 nM
IC50 [2]: 21 to 200 nM

O=C(c1cn(C[C@H]2CCN2)c2cc(-c3cn[nH]c3F)ccc12)C1COc2ccc(Cl)cc2C1 (stereo partly shown) [Compound 1-40]
IC50 [1]: > 501 nM
IC50 [2]: < 20 nM

COc1ccc2c(c1)CC(C(=O)c1cn(C[C@@H]3CCN3)c3cc(-c4cn[nH]c4OC)ccc13)CO2 (stereo partly shown) [Compound 1-41]
IC50 [1]: 201 to 500 nM
IC50 [2]: < 20 nM

COc1ccc2c(c1)CC(C(=O)c1cn(C[C@H]3CCN3)c3cc(-c4cn[nH]c4OC)ccc13)CO2 (stereo partly shown) [Compound 1-42]
IC50 [1]: 201 to 500 nM
IC50 [2]: < 20 nM

CN1CC(Cn2cc(C(=O)C3COc4ccc(Cl)cc4C3)c3ccc(-c4cn[nH]c4F)cc32)C1 (stereo not shown) [Compound 1-43]
IC50 [1]: 21 to 200 nM
IC50 [2]: < 20 nM

COc1[nH]ncc1-c1ccc2c(C(=O)C3COc4ccc(Cl)cc4C3)cn(CC3CN(C)C3)c2c1 (stereo not shown) [Compound 1-44]
IC50 [1]: > 501 nM
IC50 [2]: < 20 nM

COc1ccc2c(c1)CC(C(=O)c1cn(C[C@H]3CCN3C)c3cc(-c4cn[nH]c4F)ccc13)CO2 (stereo partly shown) [Compound 1-45]
IC50 [1]: > 501 nM
IC50 [2]: 21 to 200 nM

COc1ccc2c(c1)CC(C(=O)c1cn(C[C@@H]3CCN3C)c3cc(-c4cn[nH]c4Cl)ccc13)CO2 (stereo partly shown) [Compound 1-46]
IC50 [1]: > 501 nM
IC50 [2]: 21 to 200 nM

COc1ccc2c(c1)CC(C(=O)c1cn(C[C@@H]3CCN3C)c3cc(-c4cn[nH]c4OC)ccc13)CO2 (stereo partly shown) [Compound 1-47]
IC50 [1]: > 501 nM
IC50 [2]: < 20 nM

COc1ccc2c(c1)CC(C(=O)c1cn(C[C@@H]3CCN3C)c3cc(-c4cn[nH]c4F)ccc13)CO2 (stereo partly shown) [Compound 1-48]
IC50 [1]: > 501 nM
IC50 [2]: 21 to 200 nM

COc1ccc2c(c1)CC(C(=O)c1cn(C[C@H]3CCN3C)c3cc(-c4cn[nH]c4OC)ccc13)CO2 (stereo partly shown) [Compound 1-49]
IC50 [1]: > 501 nM
IC50 [2]: 21 to 200 nM

COc1ccc2c(c1)CC(C(=O)c1cn(C[C@H]3CCN3C)c3cc(-c4cn[nH]c4Cl)ccc13)CO2 (stereo partly shown) [Compound 1-50]
IC50 [1]: > 501 nM
IC50 [2]: < 20 nM

COc1ccc2c(c1)C[C@H](C(=O)c1cn(C[C@H]3CCN3C)c3cc(-c4cn[nH]c4Cl)ccc13)CO2 [Compound 1-51]
IC50 [1]: > 501 nM
IC50 [2]: < 20 nM

CCN1CC[C@@H]1Cn1cc(C(=O)C2COc3ccc(OC)cc3C2)c2ccc(-c3cn[nH]c3OC)cc21 (stereo partly shown) [Compound 1-56]
IC50 [1]: > 501 nM
IC50 [2]: 21 to 200 nM

COc1[nH]ncc1-c1ccc2c(C(=O)[C@@H]3COc4ccc(F)cc4C3)cn(CCN(C)C)c2c1 [Compound 5-39]
IC50 [1]: > 501 nM
